In patent US6734182B2, “Aryl sulfonamides and sulfamide derivatives and uses thereof” (Synaptic Pharmaceutical Corporation, priority 1995, dated 2004):

Tests used:
human 5HT1E receptor = target: T1, human 5HT1E receptor (Homo sapiens, UniProt P28566); experiment: Binding to human 5HT1E receptor ([3H]serotonin); details: cloned human receptor
T1 construct: expressed in transfected cells
Description: 5HT1Dα, 5HT1Dβ, 5HT1E, 5HT1F Receptors: LM(tk−) clonal cell lines stably transfected with the genes encoding each of these 5HT receptor subtypes were prepared as described above. The cell line for the 5HT1Dα, receptor, designated as Ltk−8-30-84, was deposited on Apr. 17, 1990, and accorded ATCC Accession No. CRL 10421. The cell for the 5HT1Dβ receptor, designated as Ltk−11, was deposited on Apr. 17, 1990, and accorded ATCC Accession No. CRL 10422. The cell line for the 5HT1E receptor, designated 5 HT1E-7, was deposited on Nov. 6, 1991, and accorded ATCC Accession No. CRL 10913. The cell line for the 5HT1F receptor, designated L-5-HT1F, was deposited on Dec. 27, 1991, and accorded ATCC Accession No. ATCC 10957. Membrane preparations comprising these receptors were prepared as described below, and suspended in 50 mM Tris-HCl buffer (pH 7.4 at 37° C.) containing 10 mM MgCl2, 0.2 mM EDTA, 10 μM pargyline, and 0.1% ascorbate. The binding of compounds was determined in competition binding assays by incubation for 30 minutes at 37° C. in the presence of 5 nM [^3H) serotonin. Nonspecific binding was determined in the presence of 10 μM serotonin. The bound radioligand was separated by filtration through GF/B filters using a cell harvester.

[1] = system: NPY-induced feeding behavior in satiated rats; experiment: NPY-induced food intake in satiated rats; format: in vivo, rat; details: compound 30 mg/kg i.p., then 300 pmole NPY i.c.v., 4 hours after NPY, in g (unit assumed)
Description: For these determinations food intake maybe measured in normal satiated rats after intracerebroventricular application (i.c.v.) of NPY in the presence or absence of the test compound. Male Sprague Dawley rats ciba-Geigy AG, Sisseln, Switzerland weighing between 180 g and 220 g are used for all experiments. The rats are individually housed in stainless steel cages and maintained on an 11:13 h light-dark cycle (lights off at 18:00 h) at a controlled temperature of 21-23° C. at all times. Water and food (NAFAG lab chow pellets, NAFAG, Gossau, Switzerland) are available ad libidum.
Rats under pentobarbital anesthesia are stereotaxically implanted with a stainless steel guide cannula targeted at the right lateral ventricle. Stereotaxic coordinates, with the incisor bar set −2.0 mm below interaural line, are: −0.8 mm anterior and +1.3 mm lateral to bregma. The guide cannula is placed on the dura. […]
Food intake may be measured by placing preweighed pellets into the cages at the time of NPY injection. […] The food intake of animals treated with test compound may be calculated as a percentage of the food intake of control animals, i.e., animals treated with vehicle. Alternatively, food intake for a group of animals subjected to the same experimental condition may be expressed as the mean ±S.E.M. Statistical analysis is performed by analysis of variance using the Student-Newman-Keuls test. […]

5HT1a = 5HT1a (Homo sapiens, UniProt P08908); experiment: Binding to cloned human 5HT1a receptor
Sequence of 5HT1a (P08908 whole entry): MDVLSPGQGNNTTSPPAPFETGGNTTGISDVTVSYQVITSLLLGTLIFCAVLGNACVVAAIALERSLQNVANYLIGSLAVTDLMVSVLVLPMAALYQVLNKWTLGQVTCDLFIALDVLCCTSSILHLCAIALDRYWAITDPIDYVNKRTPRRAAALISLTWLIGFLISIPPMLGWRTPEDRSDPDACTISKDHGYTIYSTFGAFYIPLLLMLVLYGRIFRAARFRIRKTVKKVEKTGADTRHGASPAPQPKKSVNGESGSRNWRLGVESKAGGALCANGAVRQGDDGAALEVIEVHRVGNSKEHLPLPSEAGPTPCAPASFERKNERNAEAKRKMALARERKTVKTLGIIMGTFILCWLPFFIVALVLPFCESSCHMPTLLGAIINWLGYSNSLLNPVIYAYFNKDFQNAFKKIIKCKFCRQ

[2] = target: T2, human histamine H2 receptor (Homo sapiens, UniProt P25021); experiment: Binding to human histamine H2 receptor ([3H]tiotidine); details: cloned human receptor
T2 construct: expressed in transfected cells; host or cells: COS-7 cells, transient (DEAE-dextran), plasmid pcEXV-H2 (ATCC 75345)
T2 sequence (P25021 whole entry): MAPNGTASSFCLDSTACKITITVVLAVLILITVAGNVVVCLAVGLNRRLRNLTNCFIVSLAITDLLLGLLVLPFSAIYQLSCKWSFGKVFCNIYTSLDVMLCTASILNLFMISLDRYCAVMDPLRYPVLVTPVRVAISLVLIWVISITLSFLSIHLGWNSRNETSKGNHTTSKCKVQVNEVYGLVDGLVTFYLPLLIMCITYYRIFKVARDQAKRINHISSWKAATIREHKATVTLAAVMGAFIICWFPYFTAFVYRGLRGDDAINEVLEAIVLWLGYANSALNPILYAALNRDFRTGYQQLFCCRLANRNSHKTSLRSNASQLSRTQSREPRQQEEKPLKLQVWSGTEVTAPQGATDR
Description: The binding of the histamine H2 antagonist [^3H]tiotidine (5 nM, specific activity: 70 Ci/mM) was done in a final volume of 0.25 ml and incubated at room temperature for 60 min. Nonspecific binding was determined in the presence of 10 μM histamine.

human α2C receptor = target: T3, human α2C receptor (Homo sapiens, UniProt P18825); experiment: Binding to cloned human α2C adrenergic receptor ([3H]rauwolscine)
T3 construct: expressed in transfected cells
T3 sequence (P18825 whole entry): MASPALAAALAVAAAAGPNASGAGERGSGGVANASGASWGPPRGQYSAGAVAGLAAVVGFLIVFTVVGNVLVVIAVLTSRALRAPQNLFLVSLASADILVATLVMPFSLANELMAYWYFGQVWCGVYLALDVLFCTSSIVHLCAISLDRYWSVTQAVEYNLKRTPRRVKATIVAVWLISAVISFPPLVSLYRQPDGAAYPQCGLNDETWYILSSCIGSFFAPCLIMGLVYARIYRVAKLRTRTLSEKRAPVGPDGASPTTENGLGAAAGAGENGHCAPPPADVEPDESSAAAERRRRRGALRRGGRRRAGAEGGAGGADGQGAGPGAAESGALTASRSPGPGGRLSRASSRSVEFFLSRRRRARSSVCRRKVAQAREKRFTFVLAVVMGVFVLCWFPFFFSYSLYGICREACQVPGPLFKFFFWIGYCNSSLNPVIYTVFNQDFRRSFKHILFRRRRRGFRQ
Description: α2 Human Adrenergic Receptors: To determine the binding of compounds to human α2 receptors, LM(tk−) cell lines stably transfected with the genes encoding the α2A, α2B, and α2C receptors were used. […] Cell lysates were prepared as described below (see Radioligand Dinding to Membrane Suspensions), and suspended in 25 mM glycylglycine buffer (pH 7.6 at room temperature). Equilibrium competition binding assay were performed using [^3H]rauwolscine (0.5 nM), and nonspecific binding was determined by incubation with 10 μM phentolamine.

T1 sequence (P28566 whole entry): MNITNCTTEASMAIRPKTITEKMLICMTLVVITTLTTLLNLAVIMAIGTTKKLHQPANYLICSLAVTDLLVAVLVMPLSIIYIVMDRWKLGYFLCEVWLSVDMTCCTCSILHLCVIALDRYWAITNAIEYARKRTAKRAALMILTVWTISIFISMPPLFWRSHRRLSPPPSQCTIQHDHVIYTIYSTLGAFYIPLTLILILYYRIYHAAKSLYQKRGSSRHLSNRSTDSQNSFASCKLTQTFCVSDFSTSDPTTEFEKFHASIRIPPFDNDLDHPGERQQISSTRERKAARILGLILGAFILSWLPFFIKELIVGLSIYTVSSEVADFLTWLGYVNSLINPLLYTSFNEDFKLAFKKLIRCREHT

| SMILES | Receptor (pKi) 5HT1E (human 5HT1E receptor) | NPY-induced cumulative food intake (NPY + compound), mean ± S.E.M. [1] | Receptor (pKi) 5HT1a (5HT1a) | Receptor (pKi) H2 [2] | Receptor (pKi) α2c (human α2C receptor) |
| --- | --- | --- | --- | --- | --- |
| Cl.O=S(=O)(NCC1CCC(CNCC2CCc3ccccc3C2)CC1)c1cccc2ccccc12 (stereo not drawn) [Example 32] | ≤ 5.30 | 1.5 ± 0.6 | 5.54 |  |  |
| Cl.O=[N+]([O-])c1ccccc1S(=O)(=O)NCC1CCC(CNCC2CCc3ccccc3C2)CC1 (stereo not drawn) [Example 36] | ≤ 5.30 |  |  | 5.85 | 7.39 |
